The target in this assay is Plk1 (Homo sapiens, UniProt P53350). In words: biochemical.
Chain of Plk1 (P53350 20-338): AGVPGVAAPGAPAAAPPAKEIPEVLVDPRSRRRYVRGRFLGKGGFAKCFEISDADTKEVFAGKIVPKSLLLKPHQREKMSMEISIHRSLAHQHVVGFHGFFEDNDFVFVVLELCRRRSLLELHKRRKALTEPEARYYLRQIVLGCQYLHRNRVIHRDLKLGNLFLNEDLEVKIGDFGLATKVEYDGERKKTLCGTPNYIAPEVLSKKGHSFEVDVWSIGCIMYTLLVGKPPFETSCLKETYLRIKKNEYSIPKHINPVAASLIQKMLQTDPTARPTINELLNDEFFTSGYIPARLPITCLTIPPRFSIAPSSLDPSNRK
In turn, `COc1cc(C(=O)NCCN2CCOCC2)ccc1Nc1ncc2c(n1)N(C1CCCC1)CC(C)(C)C(=O)N2C` [Compound I-33, 4-(9-cyclopentyl-6,7,8,9-tetrahydro-5,7,7-trimethyl-6-oxo-5H-pyrimido[4,5-b][1,4]diazepin-2-ylamino)-3-methoxy-N-(2-morpholinoethyl)benzamide] had a Ki of less than 10 nM.
The result for `COc1cc(C(=O)NCCN2CCCC2)ccc1Nc1ncc2c(n1)N(C1CCCC1)CC(C)(C)C(=O)N2C` [Compound I-34, 4-(9-cyclopentyl-6,7,8,9-tetrahydro-5,7,7-trimethyl-6-oxo-5H-pyrimido[4,5-b][1,4]diazepin-2-ylamino)-3-methoxy-N-(2-(pyrrolidin-1-yl)ethyl)benzamide] reads less than 10 nM; that for `CNC(=O)c1ccc(Nc2ncc3c(n2)N(C(C)C)CC(C)(C)C(=O)N3C)c(OC)c1` [Compound I-35, 4-(6,7,8,9-tetrahydro-9-isopropyl-5,7,7-trimethyl-6-oxo-5H-pyrimido[4,5-b][1,4]diazepin-2-ylamino)-3-methoxy-N-methylbenzamide], 10 to 100 nM.
The figure for `CNC(=O)c1ccc(Nc2ncc3c(n2)N(C2CCCC2)CC(C)(C)c2nncn2-3)c(OC)c1` [Compound I-36, 4-(6-Cyclopentyl-4,4-dimethyl-5,6-dihydro-4H-2,3,6,7,9,10b-hexaazabenzo[e]azulen-8-ylamino)-3-methoxy-N-methylbenzamide] is less than 10 nM; for `COc1cc(C(=O)NCCN2CC[C@H](F)C2)ccc1Nc1ncc2c(n1)N(C1CCCC1)CC(C)(C)C(=O)N2C` [Compound I-37, 4-(9-cyclopentyl-6,7,8,9-tetrahydro-5,7,7-trimethyl-6-oxo-5H-pyrimido[4,5-b][1,4]diazepin-2-ylamino)-N-(2-((S)-3-fluoropyrrolidin-1-yl)ethyl)-3-methoxybenzamide] it is less than 10 nM; for `COc1cc(C(=O)NCCN2CCC2)ccc1Nc1ncc2c(n1)N(C1CCCC1)CC(C)(C)C(=O)N2C` [Compound I-38] it is less than 10 nM.
The figure for `COc1cc(C(=O)NCCOC(=O)N2CC[C@@H](F)C2)ccc1Nc1ncc2c(n1)N(C1CCCC1)CC(C)(C)C(=O)N2C` [Compound I-39, (R)-3-Fluoro-pyrrolidine-1-carboxylic acid 2-[4-(9-cyclopentyl-5,7,7-trimethyl-6-oxo-6,7,8,9-tetrahydro-5H-pyrimido[4,5-b][1,4]diazepin-2-ylamino)-3-methoxybenzoylamino]-ethyl ester] is less than 10 nM; for `CNC(=O)c1ccc(Nc2ncc3c(n2)N(c2ccccc2)CC(C)(C)C(=O)N3C)c(OC)c1` [Compound I-40, 4-(6,7,8,9-tetrahydro-5,7,7-trimethyl-6-oxo-9-phenyl-5H-pyrimido[4,5-b][1,4]diazepin-2-ylamino)-3-methoxy-N-methylbenzamide] it is 10 to 100 nM; for `CNC(=O)c1ccc(Nc2ncc3c(n2)N(C2CCCC2)CCc2nncn2-3)c(OC)c1` [Compound I-42, 4-(6-Cyclopentyl-5,6-dihydro-4H-2,3,6,7,9,10b-hexaaza-benzo[e]azulen-8-ylamino)-3-methoxy-N-methylbenzamide] it is 10 to 100 nM.
As for `CN1C(=O)C(C)(C)CN(C2CCCC2)c2nc(Nc3ccc4nc[nH]c4c3)ncc21` [Compound I-43, 2-(1H-benzo[d]imidazol-6-ylamino)-9-cyclopentyl-8,9-dihydro-5,7,7-trimethyl-5H-pyrimido[4,5-b][1,4]diazepin-6(7H)-one], the inhibitory constant (Ki) was in the range of 10 to 100 nM.
The molecule `CN1C(=O)C(C)(C)CN(C2CCCC2)c2nc(Nc3ccc4ncsc4c3)ncc21` [Compound I-44, 2-(benzo[d]thiazol-6-ylamino)-9-cyclopentyl-8,9-dihydro-5,7,7-trimethyl-5H-pyrimido[4,5-b][1,4]diazepin-6(7H)-one] returned a Ki of 10 to 100 nM.
The result for `CN1C(=O)C(C)(C)CN(C2CCCC2)c2nc(Nc3ccc4c(c3)CC(=O)N4)ncc21` [Compound I-45, 2-(2-oxoindolin-5-ylamino)-9-cyclopentyl-8,9-dihydro-5,7,7-trimethyl-5H-pyrimido[4,5-b][1,4]diazepin-6(7H)-one] reads 10 to 100 nM; that for `CNC(=O)c1cccc(Nc2ncc3c(n2)N(C2CCCC2)CC(C)(C)C(=O)N3C)c1` [Compound I-46, 3-(9-cyclopentyl-6,7,8,9-tetrahydro-5,7,7-trimethyl-6-oxo-5H-pyrimido[4,5-b][1,4]diazepin-2-ylamino)-N-methylbenzamide], 10 to 100 nM.
Turning to `CN1C(=O)C(C)(C)CN(C2CCCC2)c2nc(Nc3ccc4cn[nH]c4c3)ncc21` [Compound I-47, 2-(1H-indazo-6-ylamino)-9-cyclopentyl-8,9-dihydro-5,7,7-trimethyl-5H-pyrimido[4,5-b][1,4]diazepin-6(7H)-one], the inhibitory constant (Ki) was less than 10 nM.
The figure for `CN1C(=O)C(C)(C)CN(C2CCCC2)c2nc(Nc3ccc(-n4ccnc4)cc3)ncc21` [Compound I-48, 2-(4-(1H-imidazol-1-yl)phenylamino)-9-cyclopentyl-8,9-dihydro-5,7,7-trimethyl-5H-pyrimido[4,5-b][1,4]diazepin-6(7H)-one] is less than 10 nM; for `CN1C(=O)C(C)(C)CN(C2CCCC2)c2nc(Nc3ccc(-n4cncn4)cc3)ncc21` [Compound I-49, 2-(4-(1H-1,2,4-triazol-1-yl)phenylamino)-9-cyclopentyl-8,9-dihydro-5,7,7-trimethyl-5H-pyrimido[4,5-b][1,4]diazepin-6(7H)-one] it is 10 to 100 nM.
The result for `CNC(=O)c1ccc(Nc2ncc3c(n2)N(C2CCCC2)CC(C)(C)C(=O)N3C)c(OC(C)C)c1` [Compound I-50, 4-(9-cyclopentyl-6,7,8,9-tetrahydro-5,7,7-trimethyl-6-oxo-5H-pyrimido[4,5-b][1,4]diazepin-2-ylamino)-3-isopropoxy-N-methylbenzamide] reads 10 to 100 nM; that for `CC(C)Oc1cc(C(=O)NC2CCN(C)CC2)ccc1Nc1ncc2c(n1)N(C1CCCC1)CC(C)(C)C(=O)N2C` [Compound I-51, 4-(9-cyclopentyl-6,7,8,9-tetrahydro-5,7,7-trimethyl-6-oxo-5H-pyrimido[4,5-b][1,4]diazepin-2-ylamino)-3-isopropoxy-N-(1-methylpiperidin-4-yl)benzamide], less than 10 nM; that for `COc1cc(C(=O)NC2CN(C(C)C)C2)ccc1Nc1ncc2c(n1)N(C1CCCC1)CC(C)(C)C(=O)N2C` [Compound I-52, 4-(9-cyclopentyl-6,7,8,9-tetrahydro-5,7,7-trimethyl-6-oxo-5H-pyrimido[4,5-b][1,4]diazepin-2-ylamino)-N-(1-isopropylazetidin-3-yl)-3-methoxybenzamide], less than 10 nM.
Molecule `COc1cc(C(=O)NC2CN(CC3CC3)C2)ccc1Nc1ncc2c(n1)N(C1CCCC1)CC(C)(C)C(=O)N2C` [Compound I-53, 4-(9-cyclopentyl-6,7,8,9-tetrahydro-5,7,7-trimethyl-6-oxo-5H-pyrimido[4,5-b][1,4]diazepin-2-ylamino)-N-(1-(cyclopropylmethyl)azetidin-3-yl)-3-methoxybenzamide] returned an inhibition constant (Ki) of less than 10 nM.
The result for `CNC(=O)c1ccc(Nc2ncc3c(n2)N(C2CCOCC2)CC(C)(C)C(=O)N3C)c(OC)c1` [Compound I-56, 4-(6,7,8,9-tetrahydro-9-(tetrahydro-2H-pyran-4-yl)-5,7,7-trimethyl-6-oxo-5H-pyrimido[4,5-b][1,4]diazepin-2-ylamino)-3-methoxy-N-methylbenzamide] reads 10 to 100 nM; that for `CNC(=O)c1ccc(Nc2ncc3c(n2)N(CC2CC2)CC(C)(C)C(=O)N3C)c(OC)c1` [Compound I-58, 4-(9-(cyclopropylmethyl)-6,7,8,9-tetrahydro-5,7,7-trimethyl-6-oxo-5H-pyrimido[4,5-b][1,4]diazepin-2-ylamino)-3-methoxy-N-methylbenzamide], less than 10 nM; that for `COc1cc(C(=O)NC2CCN(CC3CC3)CC2)ccc1Nc1ncc2c(n1)N(C1CCCC1)CC(C)(C)C(=O)N2C` [Compound I-59, 4-(9-cyclopentyl-6,7,8,9-tetrahydro-5,7,7-trimethyl-6-oxo-5H-pyrimido[4,5-b][1,4]diazepin-2-ylamino)-N-(1-(cyclopropylmethyl)piperidin-4-yl)-3-methoxybenzamide], less than 10 nM.
As for `CNC(=O)c1ccc(Nc2ncc3c(n2)N(C2CCCC2)CC2(CCC2)C(=O)N3C)c(OC)c1` [Compound I-60, 4-(9′-cyclopentyl-5′-methyl-6′-oxo-5′,6′,8′,9′-tetrahydrospiro[cyclobutane-1,7′-pyrimido[4,5-b][1,4]diazepine]-2′-ylamino)-3-methoxy-N-methylbenzamide], the inhibition constant Ki is less than 10 nM.
The result for `CNC(=O)c1ccc(Nc2ncc3c(n2)N(C2CCCC2)CC2(CC2)C(=O)N3C)c(OC)c1` [Compound I-62, 4-(9′-cyclopentyl-5′-methyl-6′-oxo-5′,6′,8′,9′-tetrahydrospiro[cyclopropane-1,7′-pyrimido[4,5-b][1,4]diazepine]-2′-ylamino)-3-methoxy-N-methylbenzamide] reads less than 10 nM; that for `CN1C(=O)C(C)(C)CN(C2CCCC2)c2nc(Nc3ccc(N4CCOCC4)cc3)ncc21` [Compound I-63, 2-(4-morpholinophenylamino)-9-cyclopentyl-8,9-dihydro-5,7,7-trimethyl-5H-pyrimido[4,5-b][1,4]diazepin-6(7H)-one], 10 to 100 nM; that for `COc1cc(C(=O)NC2CCN(C)CC2)ccc1Nc1ncc2c(n1)N(C1CCCC1)CC1(CCC1)C(=O)N2C` [Compound I-64, 4-(9′-cyclopentyl-5′-methyl-6′-oxo-5′,6′,8′,9′-tetrahydrospiro[cyclobutane-1,7′-pyrimido[4,5-b][1,4]diazepine]-2′-ylamino)-3-methoxy-N-(1-methylpiperidin-4-yl)benzamide], less than 10 nM.
`COc1cc(C(=O)NC2CCN(C)CC2)ccc1Nc1ncc2c(n1)N(C1CCCC1)[C@H](C)CC(=O)N2C` [Compound I-65, 4-((R)-9-cyclopentyl-6,7,8,9-tetrahydro-5,8-dimethyl-6-oxo-5H-pyrimido[4,5-b][1,4]diazepin-2-ylamino)-3-methoxy-N-(1-methylpiperidin-4-yl)benzamide]: the inhibition constant (Ki) fell in the range of 10 to 100 nM.
As for `CNC(=O)c1ccc(Nc2ncc3c(n2)N([C@@H]2CCN(CC4CC4)C2)CC(C)(C)C(=O)N3C)c(OC)c1` [Compound I-66], the inhibitory constant (Ki) lay within 10 to 100 nM.
Regarding `COc1cc(C(=O)NC2CCN(C(C)C)CC2)ccc1Nc1ncc2c(n1)N(C1CCCC1)CC(C)(C)C(=O)N2C` [Compound I-67], the Ki was less than 10 nM.

(Values after patent publication US8394952B2 (Vertex Pharmaceuticals Incorporated, priority 2006, dated 2013).)
